Data taken from patent US6759538B2, “Substituted diphenyl heterocycles useful for treating HCV infection” (priority 2001, dated 2004).

Tests used:
[1] = tested on: HCV nonstructural protein NS5A; assay: Quantitative Western blot assay; assay type: cell-based, Hepatitis C virus (HCV); conditions: 9-13 replicon cells, 48 hours with compound, second symbol of Replicon/Western
Procedure: Alternatively, the inhibitory activity of the compounds can be confirmed using a quantitative Western immunoblot assay utilizing antibodies specific for HCV non-structural proteins, such as NS3, NS4A NS5A and NS5B. In one embodiment of this assay, replicon cells are treated with varying concentrations of test compound to determine the concentration of test compound that yields a 50% reduction in the amount of a non-structural protein produced as compared to a control sample (IC50). A single non-structural protein may be quantified or multiple non-structural proteins may be quantified. Antibodies suitable for carrying out such immunoblot assays are available commercially (e.g., from BIODESIGN International, Saco, Me.).
Certain exemplary compounds of the invention were also tested for their ability to inhibit HCV replication using a quantitative Western blot analysis with antibodies specific for the HCV nonstructural protein NS5A. Actively dividing 9-13 replicon cells were seeded into 6-well plates at a density of 1×10^5 cells/well in a volume of 2 ml/well and incubated at 37° C. and 5% CO2 for 24 hours. Various concentrations of test compounds (in a volume of 10 ul) were added to the wells and the cells incubated for another 48 hours. Protein samples were prepared from the cultured cells, resolved on a SDS-PAGE gel and transferred to a nitrocellulose membrane. The membrane was blocked with 5% non-fat milk in PBS for 1 hour at room temperature. Primary antibody (anti NS5A antibody; BIODESIGN International, Saco, Me.) incubation was performed for 1 hour at room temperature, after which the membrane was washed 3 times (for 15 min per time) with PBST (PBS plus 0.1% Tween 20). Horseradish peroxidase conjugated secondary antibody incubation was performed for 1 hour at room temperature and the membrane was washed 3 times (for 15 min per time) with PBST. The membrane was then soaked in substrate solution (Pierce) and exposed to a film or quantified using an imager. In this assay, the amount of test compound that yielded a 50% reduction in the amount of NS5A protein translated as compared to a control sample (IC50) was determined.

[2] = biological target: HCV replicon; assay: HCV replicon assay (luciferase); assay type: cell-based, Hepatitis C virus (HCV); conditions: 5-2 Luc replicon cells, 24 hours with compound, luciferase emission; first symbol of Replicon/Western
Excerpt: In one embodiment, the inhibitory activity of the compounds can be confirmed in a replicon assay that assesses the ability of a test compound to block or inhibit HCV replication in replicon cells. One example of a suitable replicon assay is the liver cell-line Huh 7-based replicon assay described in Lohmann et al., 1999, Science 285:110-113. A specific example of this replicon assay which utilizes luciferase translation is provided in the Examples Section. In one embodiment of this assay, the amount of test compound that yields a 50% reduction in translation as compared to a control cell (IC50) may be determined.
The inhibitory activity of certain exemplary compounds of the invention was confirmed using an HCV replicon assay. The HCV replicon can include such features as the HCV 5′ untranslated region including the HCV IRES, the HCV 3′ untranslated region, selected HCV genes encoding HCV polypeptides, selectable markers, and a reporter gene such as luciferase, GFP, etc. In the assay, actively dividing 5-2 Luc replicon-comprising cells (obtained from Rolf Bartenschlager; see Lohmann et al., 1999, Science 285:110-113) were seeded at a density of between about 5,000 and 7,500 cells/well onto 96 well plates (about 90 μl of cells per well) and incubated at 37° C. and 5% CO2 for 24 hours. Then, the test compound (in a volume of about 10 μl) was added to the wells at various concentrations and the cells were incubated for an additional 24 hours before luciferase assay. The media was aspirated from each well and Bright-Glo (Promega, Madison, Wis.) luciferase assay reagents were added to each well according to the manufacturer's instructions. Briefly, the Bright-Glo reagent was diluted 1:1 with PBS and 100 μl of diluted reagent was added to each well. After 5 min of incubation at room temperature, luciferin emission was quantified with a luminometer. In this assay, the amount of test compound that yielded a 50% reduction in luciferase emission (IC50) was determined.

[3] = tested on: 5-2 Luc cells, 9-13 cells or Huh-7 cells; assay: Cytotoxicity assay (Cell Titer Glo); conditions: read-out: IC50 cytotoxicity (number of viable cells), liver cells including an HCV replicon, 24 hr
Procedure: In the assay, cells were seeded onto 96-well plates (approx. 7500 cells/well in a volume of 90 μl) and grown for 24 hr at 37° C. On day 2, various concentrations of test compound (in a volume of 10 μl) were added to the wells and the cells were grown for an additional 24 hr at 37° C. On day 3, an ATP-dependent R-Luciferase assay (Cell Titer Glo assay) was performed to determine the number of viable cells.

Compound	IC50 [1]	IC50 [2]	IC50 [3]
2,2-Dichloro-N-[3-[3-[2-(N-morpholino)-6-trifluoromethylphenyl)-5-isoxazolyl]phenyl] Acetamide [Compound 37]	≤ 10 µM	≤ 10 µM	
2,2-Dichloro-N-[3-[3-[2-fluoro-(6-N-morpholinosulfamoyl)phenyl]-5-isoxazolyl]-phenyl] Acetamide [Compound 21]	≤ 10 µM	≤ 10 µM	
O=C(Nc1cc(-c2cc(-c3c(Cl)cccc3Cl)no2)ccc1F)C(Cl)Cl [Compound 1, 2,2-Dichloro-N-[3-[3-(2,6-dichlorophenyl)-5-isoxazolyl]-6-fluorophenyl] Acetamide]	≤ 10 µM	≤ 10 µM	
O=C(Nc1cccc(-c2cc(-c3cccc(Cl)c3Cl)no2)c1)C(Cl)Cl [Compound 3, 2,2-Dichloro-N-[3-[3-(2,3-dichlorophenyl)-5-isoxazolyl]phenyl] Acetamide]	≤ 10 µM	> 10 µM	
O=C(Nc1cccc(-c2cc(-c3c(Cl)cccc3Cl)on2)c1)C(Cl)Cl [Compound 5, 2,2-Dichloro-N-[3-[5-(2,6-dichlorophenyl)-3-isoxazolyl]phenyl] Acetamide]	≤ 10 µM	≤ 10 µM	
O=C(Nc1cccc(-c2cc(-c3c(Cl)cccc3N3CCOCC3)no2)c1)C(Cl)Cl [Compound 7, 2,2-Dichloro-N-[3-[3-[2-chloro-6-(N-morpholino)phenyl]-5-isoxazolyl]phenyl] Acetamide]	≤ 10 µM	≤ 10 µM	
CSc1cccc(F)c1-c1cc(-c2cccc(NC(=O)C(Cl)Cl)c2)on1 [Compound 11, 2,2-Dichloro-N-[3-[3-(2-fluoro-6-thiomethylphenyl)-5-isoxazolyl]phenyl] Acetamide]	≤ 10 µM	≤ 10 µM	
O=C(Nc1ccc(F)c(-c2cc(-c3c(Cl)cccc3Cl)no2)c1)C(Cl)Cl [Compound 13, 2,2-Dichloro-N-[3-[3-(2,6-dichlorophenyl)-5-isoxazolyl]-4-fluorophenyl] Acetamide]	≤ 10 µM	≤ 10 µM	
Cc1ccc(F)c(-c2cc(-c3cccc(NC(=O)C(Cl)Cl)c3)on2)c1Cl [Compound 15, 2,2-Dichloro-N-[3-[3-(2-chloro-6-fluoro-3-methylphenyl)-5-isoxazolyl]phenyl] Acetamide]	≤ 10 µM	≤ 10 µM	
O=C(Nc1cccc(-c2cc(-c3c(F)cccc3Cl)no2)c1)C(Cl)Cl [Compound 27, 2,2-Dichloro-N-[3-[3-(2-chloro-6-fluorophenyl)-5-isoxazolyl]phenyl] Acetamide]	≤ 10 µM	≤ 10 µM	
Cc1cc(C)c(-c2cc(-c3cccc(NC(=O)C(Cl)Cl)c3)on2)c(C)c1 [Compound 69, 2,2-Dichloro-N-[3-[3-(2,4,6-trimethylphenyl)-5-isoxazolyl]phenyl] Acetamide]		≤ 10 µM	3 µM
O=C(Nc1cccc(-c2cc(-c3c(Cl)cc(OCCN4CCOCC4)cc3Cl)no2)c1)C(Cl)Cl [Compound 75, 2,2-Dichloro-N-[3-[3-[2,6-dichloro-4-(N-morpholinoethyleneoxy)phenyl]-5-isoxazolyl]-phenyl] Acetamide]	≤ 10 µM	> 10 µM	
O=C(CI)Nc1cccc(-c2cc(-c3c(Cl)cccc3Cl)no2)c1 [Compound 101, 2-Iodo-N-[3-[3-(2,6-dichlorophenyl)-5-isoxazolyl]phenyl] Acetamide]	> 10 µM	≤ 10 µM	
COC(=O)c1ccc(Cl)c(-c2cc(-c3cccc(NC(=O)C(Cl)Cl)c3)on2)c1Cl [Compound 135, 2,2-Dichloro-N-[3-[3-(3-carbomethoxy-2,6-dichlorophenyl)-5-isoxazolyl]phenyl] Acetamide]	> 10 µM	> 10 µM	
Cc1cccc(-c2cc(-c3cccc(NC(=O)C(Cl)Cl)c3)on2)c1C [Compound 163, 2,2-Dichloro-N-[3-[3-(2,3-dimethylphenyl)-5-isoxazolyl]phenyl] Acetamide]	> 10 µM	> 10 µM	
